{"source": "patent US20190231757A1", "about": "“COMBINATION OF SPLEEN TYROSINE KINASE INHIBITORS AND OTHER THERAPEUTIC AGENTS” (Takeda Pharmaceutical Company Limited, priority 2016, published 2019)", "key": {"[1]": {"conditions": "mouse, in vivo, po, 60 mg/kg"}, "[2]": {"system": "CT26 mouse syngeneic colon cancer model", "assay": "CT26 mouse syngeneic colon cancer model, prior non-clinical study", "format": "in vivo", "conditions": "single agents"}, "[3]": {"system": "OCI-Ly10 human DLBCL xenografts", "assay": "Antitumor activity in SCID mice bearing OCI-Ly10 human DLBCL xenografts, ibrutinib or bendamustine combination (Example 5)", "format": "in vivo, mouse", "conditions": "Day 21; Compound A 60 mg/kg PO QD; ibrutinib 6 mg/kg PO QD; bendamustine 1 mg/kg IV BIW (6 doses); alone or combined with Compound A; citrate"}, "[4]": {"assay": "Clinical activity in a recent study (response-evaluable subjects)", "format": "in vivo", "conditions": "3 DLBCL PR, 1 FL CR, 2 FL SD"}, "[5]": {"system": "OCI-Ly10 human lymphoma xenografts", "assay": "Antitumor activity in SCID mice bearing OCI-Ly10 human lymphoma xenografts, lenalidomide combination (Example 10)", "format": "in vivo, mouse", "conditions": "alone or combined"}, "TMD8 DLBCL xenografts": {"system": "TMD8 DLBCL xenografts", "assay": "Antitumor activity in CB17 SCID mice bearing TMD8 DLBCL xenografts, gemcitabine combination (Example 8)", "format": "in vivo, mouse", "conditions": "Day 14, alone or combined", "procedure": "Tumor growth inhibition was calculated on Day 14 of the study. The last measurement was taken on Day 40 of the study.\n(§1) Experimental design: Female CB17 SCID mice (Taconic Biosciences; weight at treatment start was 19 g) were inoculated subcutaneously in the flank (cell suspension) with 5.0×10^6 TMD8 cells. Tumor growth was monitored with vernier calipers. Tumor volume was calculated using the formula V=W^2×L/2, where V=volume, W=width and L=length of the tumor. When the mean tumor volume reached approximately 215 mm^3, the animals were randomized into treatment groups (n=8/group). […] Tumor growth and body weight were measured twice per week. Tumor growth inhibition and body weight change were calculated on Day 14 of treatment.\n(§2) Statistical analysis: The differences in the tumor growth trends over time between pairs of treatment groups were assessed using linear mixed effects regression models. These models account for the fact that each animal was measured at multiple time points. A separate model was fit for each comparison, and the areas under the curve (AUC) for each treatment group were calculated using the predicted values from the model. The percent decrease in AUC (dAUC) relative to the reference group was then calculated. […] Further details regarding pairwise comparisons are provided in the Example 2.\n(§3) Drug combinations were assessed for synergy using observed AUC values. The change in AUC relative to the control was calculated for both single agent treatment groups as well as the combination group. The interaction between the two compounds was then assessed by comparing the change in AUC observed in the combination group to the sum of the changes observed in both single agents. The results can be divided into four categories: synergistic, additive, sub-additive, and antagonistic. Further details regarding combination analysis are provided in the Example 2.\n(§4) Once a final analysis was selected, the tumor measurements observed on a date pre-specified by the researcher (typically the last day of treatment) were analyzed to assess tumor growth inhibition. For this analysis, a T/C ratio was calculated for each animal by dividing the tumor measurement for the given animal by the mean tumor measurement across all control animals. The T/C ratios across a treatment group were compared to the T/C ratios of the control group using a two-tailed Welch's t-test."}, "[6]": {"assay": "Body weight and tolerability, TMD8 gemcitabine study (Example 8)", "format": "in vivo, mouse", "conditions": "alone or combined", "procedure": "as §1"}, "[7]": {"system": "WSU-Luc human lymphoma xenografts", "assay": "Antitumor activity in SCID mice bearing WSU-Luc human lymphoma xenografts, ibrutinib combination (Example 12)", "format": "in vivo, mouse", "conditions": "Day 20, alone or combined", "procedure": "The study ended on Day 20 of dosing.\nTumor growth was monitored with vernier calipers. Tumor volume was calculated using the formula V=W^2×L/2, where V=volume, W=width and L=length of the tumor. When the mean tumor volume reached approximately 190 mm^3, the animals were randomized into treatment groups (n=8/group). […] Tumor growth and body weight were measured twice per week. Tumor growth inhibition and body weight change were calculated on Day 20 of treatment.\nStatistical analysis: The differences in the tumor growth trends over time between pairs of treatment groups were assessed using linear mixed effects regression models. These models account for the fact that each animal was measured at multiple time points. A separate model was fit for each comparison, and the areas under the curve (AUC) for each treatment group were calculated using the predicted values from the model. The percent decrease in AUC (dAUC) relative to the reference group was then calculated.\nThe change in AUC relative to the control was calculated for both single agent treatment groups as well as the combination group. […] The results can be divided into four categories: synergistic, additive, sub-additive, and antagonistic.\nFor this analysis, a T/C ratio was calculated for each animal by dividing the tumor measurement for the given animal by the mean tumor measurement across all control animals. The T/C ratios across a treatment group were compared to the T/C ratios of the control group using a two-tailed Welch's t-test."}, "[8]": {"system": "OCI-Ly10 human lymphoma xenografts", "assay": "Antitumor activity in SCID mice bearing OCI-Ly10 human lymphoma xenografts, bendamustine and rituximab (Example 6)", "format": "in vivo, mouse", "conditions": "Day 21, citrate"}, "OCI-LY 10 xenografts": {"system": "OCI-LY 10 xenografts", "assay": "Antitumor activity in CB17 SCID mice bearing OCI-LY10 xenografts, ABT-199 combination (Example 11)", "format": "in vivo, mouse", "conditions": "Day 21, alone or combined", "procedure": "Tumor growth inhibition was calculated on Day 21 of the study. The last measurement was taken on Day 46 of the study.\nas §1, with “(Charles River Laboratories, about 21 g” for “(Taconic Biosciences; weight”, “start)” for “start was 19 g)”, “4.0×10^6 OCI-Ly10” for “5.0×10^6 TMD8”, “175” for “215”, “(n=5/group).” for “(n=8/group).”, “21” for “14”\nas §2\nas §3, with “analyses” for “analysis”\nas §4"}, "[9]": {"conditions": "Compound A 60 mg/kg, gemcitabine 5 mg/kg"}, "[10]": {"conditions": "Compound A 60 mg/kg, ibrutinib 20 mg/kg"}, "[11]": {"conditions": "Compound A 60 mg/kg, ABT-199 12.5 mg/kg"}}, "note": "Structures can show the parent of a compound that is named as a salt.", "data": [{"smiles": "Cn1cc(-c2nc(N[C@@H]3CCCC[C@@H]3N)c(F)c3c2C(=O)NC3)cn1", "note": "[Compound A, 6-((1R,2S)-2-aminocyclohexylamino)-7-fluoro-4-(1-methyl-1H-pyrazol-4-yl)-1H-pyrrolo[3,4-c]pyridine-3 (2H)-one citrate]", "values": [{"measurement": "increase in mean body weight on Day 14 compared to Day 0", "setting": "[1]", "value": 1.6, "unit": "g"}, {"measurement": "animals survived to 30 days after the last dose", "setting": "[2]", "value": 20, "unit": "%"}, {"measurement": "TGI", "setting": "[3]", "value": 38.8, "unit": "%"}, {"measurement": "response-evaluable subjects who responded to treatment", "setting": "[4]", "value": "6 of the 20"}, {"measurement": "TGI", "setting": "[5]; Day 21, Compound A 60 mg/kg PO QD x21, lenalidomide 10 mg/kg PO QD x21, citrate", "value": 43.6, "unit": "%"}, {"measurement": "ΔAUC", "setting": "[5]; vs vehicle, Compound A 60 mg/kg, lenalidomide 10 mg/kg", "value": "34.7 (p < 0.001)"}, {"measurement": "Mean Tumor Volume (mm^3) ± SEM", "setting": "TMD8 DLBCL xenografts; Compound A 60 mg/kg PO QD, gemcitabine 5 mg/kg IP Q3D x4", "value": "957.2 ± 82.2", "unit": "mm^3"}, {"measurement": "T/C", "setting": "TMD8 DLBCL xenografts; [9]", "value": 1.07}, {"measurement": "% BW Change (Day Maximum)", "setting": "[6]; Compound A 60 mg/kg PO QD 14 d, gemcitabine 5 mg/kg IP Q3D x4", "value": "6.4 (12) %"}, {"measurement": "Number of animals removed", "setting": "[6]; [9]", "value": 0}, {"measurement": "TGI (%)", "setting": "[7]; Compound A 60 mg/kg PO QD, ibrutinib 20 mg/kg PO QD", "value": 37.6, "unit": "%"}, {"measurement": "Mean Tumor Volume (mm^3) ± SEM", "setting": "[7]; [10]", "value": "680.4 ± 120.1", "unit": "mm^3"}, {"measurement": "T/C", "setting": "[7]; [10]", "value": 0.62}, {"measurement": "TGI", "setting": "[8]; Compound A 30 mg/kg PO QD x21, bendamustine 1 mg/kg IV BIW, rituximab 1 mg/kg IV QW x3, alone or combined", "value": 24.2, "unit": "%"}, {"measurement": "TGI", "setting": "[8]; Compound A 60 mg/kg PO QD x21, 60 mg/kg", "value": 51.1, "unit": "%"}, {"measurement": "TGI (%)", "setting": "OCI-LY 10 xenografts; Compound A 60 mg/kg PO QD, ABT-199 12.5 mg/kg PO QD", "value": 61.0, "unit": "%"}, {"measurement": "Mean Tumor Volume (mm^3) ± SEM", "setting": "OCI-LY 10 xenografts; [11]", "value": "408 ± 104.9", "unit": "mm^3"}, {"measurement": "T/C", "setting": "OCI-LY 10 xenografts; [11]", "value": 0.39}]}]}
